# How the values were obtained:
# Type in all cases: cell-based
# SK-BR-3 = assay: SRB colorimetric cell growth inhibition assay, SK-BR-3; conditions: SK-BR-3
# In short: (§1)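 Human tumour cells were exposed continuously to the test sample, and growth and viability were quantified by sulforhodamine B staining. Means ± SD came from triplicate wells, and GI, TGI (cytostatic) and LC (cell killing) parameters were derived.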
# HeLa-APL = assay: SRB colorimetric cell growth inhibition assay, HeLa-APL (aplidine resistant); conditions: HELA-APL
# In short: as §1
# SK-MEL-28 = assay: SRB colorimetric cell growth inhibition assay, SK-MEL-28; conditions: MEL-28
# In short: as §1
# PANC-1 = assay: SRB colorimetric cell growth inhibition assay, PANC-1; conditions: PANC-1
# In short: as §1
# IGROV = assay: SRB colorimetric cell growth inhibition assay, IGROV; conditions: IGROV
# In short: as §1
# K-562 = assay: SRB colorimetric cell growth inhibition assay, K-562; conditions: K-562
# In short: as §1
# HT-29 = assay: SRB colorimetric cell growth inhibition assay, HT-29; conditions: HT-29
# In short: as §1
# LoVo-Dox = assay: SRB colorimetric cell growth inhibition assay, LoVo-Dox (MDR); conditions: LOVO-DOX
# In short: as §1
# LNCaP = assay: SRB colorimetric cell growth inhibition assay, LNCaP; conditions: LN-caP
# In short: as §1
# DU-145 = assay: SRB colorimetric cell growth inhibition assay, DU-145; conditions: DU-145
# In short: as §1
# A-549 = assay: SRB colorimetric cell growth inhibition assay, A-549; conditions: A-549
# In short: as §1
# HeLa = assay: SRB colorimetric cell growth inhibition assay, HeLa; conditions: HELA
# In short: as §1
# IGROV-ET = assay: SRB colorimetric cell growth inhibition assay, IGROV-ET (ET-743 resistant); conditions: IGROV-ET
# In short: as §1
# LoVo = assay: SRB colorimetric cell growth inhibition assay, LoVo; conditions: LOVO
# In short: as §1
# [1] = total growth inhibition (cytostatic effect)
compound,measurement,setting,value
COc1cc(-c2c3c4cc(OC)c(OC(=O)[C@H](C)N)cc4oc(=O)c3n3ccc4cc(O)c(OC)cc4c23)ccc1O.Cl [Compound 240],GI50,"SK-BR-3; GI=growth inhibition, read-out: GI50 SK-BR-3",0.0593 µM
same,CC50,"SK-BR-3; cell killing (cytotoxic effect), read-out: LC50 SK-BR-3",16.5 µM
same,TGI SK-BR-3,SK-BR-3; [1],3.43E−07 Molar
same,GI50,"HeLa-APL; GI=growth inhibition, read-out: GI50 HELA-APL",0.341 µM
same,CC50,"HeLa-APL; cell killing (cytotoxic effect), read-out: LC50 HELA-APL",7.61 µM
same,TGI HELA-APL,HeLa-APL; [1],1.40E−06 Molar
same,GI50,"SK-MEL-28; GI=growth inhibition, read-out: GI50 MEL-28",0.0997 µM
same,CC50,"SK-MEL-28; cell killing (cytotoxic effect), read-out: LC50 MEL-28",1.44 µM
same,TGI MEL-28,SK-MEL-28; [1],3.81E−07 Molar
same,GI50,"PANC-1; GI=growth inhibition, read-out: GI50 PANC-1",0.0705 µM
same,CC50,"PANC-1; cell killing (cytotoxic effect), read-out: LC50 PANC-1",8.86 µM
same,TGI PANC-1,PANC-1; [1],6.82E−07 Molar
same,GI50,"IGROV; GI=growth inhibition, read-out: GI50 IGROV",0.136 µM
same,CC50,"IGROV; cell killing (cytotoxic effect), read-out: LC50 IGROV",3.64 µM
same,TGI IGROV,IGROV; [1],5.22E−07 Molar
same,GI50,"K-562; GI=growth inhibition, read-out: GI50 K-562",0.124 µM
same,CC50,"K-562; cell killing (cytotoxic effect), read-out: LC50 K-562",2.09 µM
same,TGI K-562,K-562; [1],4.50E−07 Molar
same,GI50,"HT-29; GI=growth inhibition, read-out: GI50 HT-29",1.64 µM
same,CC50,"HT-29; cell killing (cytotoxic effect), read-out: LC50 HT-29",16.5 µM
same,TGI HT-29,HT-29; [1],1.59E−05 Molar
same,GI50,"LoVo-Dox; GI=growth inhibition, read-out: GI50 LOVO-DOX",0.461 µM
same,CC50,"LoVo-Dox; cell killing (cytotoxic effect), read-out: LC50 LOVO-DOX",16.5 µM
same,TGI LOVO-DOX,LoVo-Dox; [1],1.15E−06 Molar
same,GI50,"LNCaP; GI=growth inhibition, read-out: GI50 LN-caP",4.09 µM
same,CC50,"LNCaP; cell killing (cytotoxic effect), read-out: LC50 LN-caP",16.5 µM
same,TGI LN-caP,LNCaP; [1],1.65E−05 Molar
same,GI50,"DU-145; GI=growth inhibition, read-out: GI50 DU-145",0.0606 µM
same,CC50,"DU-145; cell killing (cytotoxic effect), read-out: LC50 DU-145",16.5 µM
same,TGI DU-145,DU-145; [1],1.34E−07 Molar
same,GI50,"A-549; GI=growth inhibition, read-out: GI50 A-549",0.126 µM
same,CC50,"A-549; cell killing (cytotoxic effect), read-out: LC50 A-549",1.51 µM
same,TGI A-549,A-549; [1],4.70E−07 Molar
same,GI50,"HeLa; GI=growth inhibition, read-out: GI50 HELA",0.0575 µM
same,CC50,"HeLa; cell killing (cytotoxic effect), read-out: LC50 HELA",1.4 µM
same,TGI HELA,HeLa; [1],1.49E−07 Molar
same,GI50,"IGROV-ET; GI=growth inhibition, read-out: GI50 IGROV-ET",0.0824 µM
same,CC50,"IGROV-ET; cell killing (cytotoxic effect), read-out: LC50 IGROV-ET",12.9 µM
same,TGI IGROV-ET,IGROV-ET; [1],3.66E−07 Molar
same,GI50,"LoVo; GI=growth inhibition, read-out: GI50 LOVO",0.17 µM
same,CC50,"LoVo; cell killing (cytotoxic effect), read-out: LC50 LOVO",1.52 µM
same,TGI LOVO,LoVo; [1],5.09E−07 Molar

# From patent US7396837B2, “Antitumoral analogs of lamellarins” (Pharma Mar, S.A.U., priority 2002, dated 2008)
